pIC50: −log10 of the molar value.
Experiments:
[1] = target: Complex V (F1FO ATP synthase); test: immunocapture-based OXPHOS activity assay; type: biochemical, Bos taurus
Complex I = test: immunocapture-based OXPHOS activity assay; type: biochemical, Bos taurus

Row | Compound | pIC50 [1] | pIC50 (Complex I)
1 | C/C(O)=C(\C#N)C(=O)Nc1ccc(C(F)(F)F)cc1 [A77 1726, 2-Cyano-3-hydroxy-N-[4-(trifluoromethyl)phenyl]-2-butenamide] | 4.20 | 3.64
2 | Cc1oncc1C(=O)Nc1ccc(C(F)(F)F)cc1 [leflunomide] | 4.46 | 3.70

Reference: article PMC5909954 (Toxicology, 2018)
